Results: patent publication US7723524B2, “8-cyanoquinolonecarboxylic acid derivative” (Daiichi Pharmaceutical Co., Ltd., priority 2003, dated 2010)
In brackets after ≈: the same amount, converted by molar mass. Where a name gives a salt, the structure may show the parent alone. Read-outs that look alike come from different tables or passages of the source.

Experiments:
S. epidermidis 56500 = test: Antibacterial activity (MIC), standard method of the Japanese Society of Chemotherapy; format: cell-based; settings: Staphylococcus epidermidis
Method: (§1) Antibacterial activity of the compounds of the present invention was measured in accordance with the standard method designated by the Japanese Society of Chemotherapy. The results are shown in MIC values (μg/mL) (Table 1). For comparison with the MIC values of the compounds of the present invention, MIC values of levofloxacin (LVFX), ciprofloxacin (CPFX), and 7-[3-(R)-(1-aminocyclopropyl)pyrrolidin-1-yl]-8-cyano-1-[2-(S)-fluoro-1-(R)-cyclopropyl]-1,4-dihydro-4-oxoquinoline-3-carboxylic acid (control drug 1: represented by the following formula), which is described in International Publication WO 02/40478 pamphlet, are also shown in the table.

K. pneumoniae TYPE I = test: as above; format: cell-based; settings: Klebsiella pneumoniae
Method: as §1

P. aeruginosa 32104 = test: as above; format: cell-based; settings: Pseudomonas aeruginosa
Method: as §1

S. maltophilia IID 1275 = test: as above; format: cell-based; settings: Stenotrophomonas maltophilia, IID1275
Method: as §1

S. pneumoniae J24 = test: as above; format: cell-based; settings: Streptococcus pneumoniae
Method: as §1

P. Vulgaris 08601 = test: as above; format: cell-based; settings: Proteus vulgaris
Method: as §1

E. coli NIHJ = test: as above; format: cell-based; settings: Escherichia coli
Method: as §1

P. aeruginosa 32121 = test: as above; format: cell-based; settings: Pseudomonas aeruginosa
Method: as §1

S. marcescens 10100 = test: as above; format: cell-based; settings: Serratia marcescens
Method: as §1

S. pyogenes G-36 = test: as above; format: cell-based; settings: Streptococcus pyogenes, G36
Method: as §1

S. aureus 870307 = test: as above; format: cell-based; settings: Staphylococcus aureus
Method: as §1

S. aureus FDA 209P = test: as above; format: cell-based; settings: Staphylococcus aureus, FDA209P
Method: as §1

S. flexneri 2A 5503 = test: as above; format: cell-based; settings: Shigella flexneri, 2A5503
Method: as §1

E. faevcalis ATCC 19433 = test: as above; format: cell-based
Method: as §1

[1] = tested on: mouse bone marrow polychromatic erythrocytes; test: Mouse bone marrow micronucleus test; format: in vivo; settings: male Slc:ddY mice, 24 hours after administration
Method: By use of compound Nos. 1 and 2, a mouse bone marrow micronucleus test was performed through the following method.
Groups of mice, each consisting of five, six-week-old, male Slc:ddY mice, were used. Compound Nos. 1 and 2 were dissolved in and diluted with 0.1 mol/L NaOH/saline. The medium; i.e., 0.1 mol/L NaOH/saline, was used as a control, and a drug solution which had been prepared by dissolving and diluting cyclophosphamide in saline was used as a positive control drug. All the drug solutions were disinfected through filtration by use of a Mylex GS 0.22 μm filter. Each drug solution was intravenously administered with a regimen of 10 mL/kg single dose at a rate of 0.2 mL/min (100 and 150 mg/kg). Twenty four hours after administration, […] were collected from the femur bone, the smear preparations were prepared, and these were stained with […].

[2] = S. epidermidis 56500, read-out: MIC
[3] = K. pneumoniae TYPE I, read-out: MIC
[4] = P. aeruginosa 32104, read-out: MIC
[5] = S. maltophilia IID 1275, read-out: MIC
[6] = S. pneumoniae J24, read-out: MIC
[7] = P. Vulgaris 08601, read-out: MIC
[8] = P. aeruginosa 32121, read-out: MIC
[9] = S. marcescens 10100, read-out: MIC
[10] = S. pyogenes G-36, read-out: MIC
[11] = S. aureus 870307, read-out: MIC
[12] = S. aureus FDA 209P, read-out: MIC
[13] = E. faevcalis ATCC 19433, read-out: MIC

SMILES | MIC (S. epidermidis 56500; [2]) | MIC (K. pneumoniae TYPE I; [3]) | MIC (P. aeruginosa 32104; [4]) | MIC (S. maltophilia IID 1275; [5]) | MIC (S. pneumoniae J24; [6]) | MIC (P. Vulgaris 08601; [7]) | MIC (E. coli NIHJ; E. coli NIHJ, read-out: MIC) | MIC (P. aeruginosa 32121; [8]) | MIC (S. marcescens 10100; [9]) | MIC (S. pyogenes G-36; [10]) | MIC (S. aureus 870307; [11]) | MIC (S. aureus FDA 209P; [12]) | MIC (S. flexneri 2A 5503) | MIC (E. faevcalis ATCC 19433; [13]) | further results
N#Cc1c(N2CC[C@@H](C3(N)CC3)C2)c(F)cc2c(=O)c(C(=O)O)cn(C3CC3)c12 (as salt: trifluoroacetate) (hydrate or solvate) [Compound No. 2, 7-[3-(R)-(1-Aminocyclopropyl)pyrrolidin-1-yl]-8-cyano-1-cyclopropyl-6-fluoro-1,4-dihydro-4-oxoquinoline-3-carboxylate] |  |  |  |  |  |  |  |  |  |  |  |  |  |  | melting point: 148 to 152 °C
N#Cc1c(N2CC[C@@H](C3(N)CC3)C2)c(F)cc2c(=O)c(C(=O)O)cn([C@@H]3C[C@@H]3F)c12 (hydrate or solvate) [Compound No. 1, 7-[3-(R)-(1-Aminocyclopropyl)pyrrolidin-1-yl]-8-cyano-6-fluoro-1-[2-(S)-fluoro-1-(R)-cyclopropyl]-1,4-dihydro-4-oxoquinoline-3-carboxylate] |  |  |  |  |  |  |  |  |  |  |  |  |  |  | melting point: 138 to 140 °C
O=C(O)c1cn(C2CC2)c2cc(N3CCNCC3)c(F)cc2c1=O [CPFX, ciprofloxacin, reference compound] | 0.2 µg/mL (≈ 0.604 µM) | 0.025 µg/mL (≈ 0.0754 µM) | 0.05 µg/mL (≈ 0.151 µM) | 0.78 µg/mL (≈ 2.35 µM) | 0.39 µg/mL (≈ 1.18 µM) | ≤ 0.003 µg/mL | ≤ 0.003 µg/mL | 0.025 µg/mL (≈ 0.0754 µM) | 0.025 µg/mL (≈ 0.0754 µM) | 1.56 µg/mL (≈ 4.71 µM) | > 6.25 µg/mL | 0.1 µg/mL (≈ 0.302 µM) | 0.006 µg/mL (≈ 0.0181 µM) | 0.78 µg/mL (≈ 2.35 µM) | 
N#Cc1c(N2CC[C@@H](C3(N)CC3)C2)ccc2c(=O)c(C(=O)O)cn([C@@H]3C[C@@H]3F)c12 [Control drug 1, 7-[3-(R)-(1-aminocyclopropyl)pyrrolidin-1-yl]-8-cyano-1-[2-(S)-fluoro-1-(R)-cyclopropyl]-1,4-dihydro-4-oxoquinoline-3-carboxylic acid, reference compound] | 0.05 µg/mL (≈ 0.126 µM) | 0.1 µg/mL (≈ 0.252 µM) | 0.2 µg/mL (≈ 0.505 µM) | 0.78 µg/mL (≈ 1.97 µM) | 0.025 µg/mL (≈ 0.0631 µM) | 0.025 µg/mL (≈ 0.0631 µM) | 0.012 µg/mL (≈ 0.0303 µM) | 0.1 µg/mL (≈ 0.252 µM) | 0.1 µg/mL (≈ 0.252 µM) | 0.025 µg/mL (≈ 0.0631 µM) | 0.39 µg/mL (≈ 0.984 µM) | 0.006 µg/mL (≈ 0.0151 µM) | 0.012 µg/mL (≈ 0.0303 µM) | 0.1 µg/mL (≈ 0.252 µM) | 
C[C@H]1COc2c(N3CCN(C)CC3)c(F)cc3c(=O)c(C(=O)O)cn1c23 [LVFX, levofloxacin, reference compound] | 0.39 µg/mL (≈ 1.08 µM) | 0.1 µg/mL (≈ 0.277 µM) | 0.2 µg/mL (≈ 0.553 µM) | 0.39 µg/mL (≈ 1.08 µM) | 0.78 µg/mL (≈ 2.16 µM) | 0.012 µg/mL (≈ 0.0332 µM) | 0.012 µg/mL (≈ 0.0332 µM) | 0.1 µg/mL (≈ 0.277 µM) | 0.1 µg/mL (≈ 0.277 µM) | 0.78 µg/mL (≈ 2.16 µM) | > 6.25 µg/mL | 0.2 µg/mL (≈ 0.553 µM) | 0.025 µg/mL (≈ 0.0692 µM) | 0.78 µg/mL (≈ 2.16 µM) | 
N#Cc1c(N2CC[C@@H](C3(N)CC3)C2)c(F)cc2c(=O)c(C(=O)O)cn([C@@H]3C[C@@H]3F)c12 [No. 1] | 0.006 µg/mL (≈ 0.0145 µM) | 0.025 µg/mL (≈ 0.0603 µM) | 0.1 µg/mL (≈ 0.241 µM) | 0.2 µg/mL (≈ 0.483 µM) | 0.006 µg/mL (≈ 0.0145 µM) | 0.006 µg/mL (≈ 0.0145 µM) | ≤ 0.003 µg/mL | 0.05 µg/mL (≈ 0.121 µM) | 0.025 µg/mL (≈ 0.0603 µM) | 0.006 µg/mL (≈ 0.0145 µM) | 0.05 µg/mL (≈ 0.121 µM) | ≤ 0.003 µg/mL | ≤ 0.003 µg/mL | 0.025 µg/mL (≈ 0.0603 µM) | difference in the micronucleus induction rate between the control and the administration group ([1]; 150 mg/kg intravenous single dose): no significant difference; micronucleus test judgment result ([1]; intravenous single dose, up to 150 mg/kg): negative
N#Cc1c(N2CC[C@@H](C3(N)CC3)C2)c(F)cc2c(=O)c(C(=O)O)cn(C3CC3)c12 [No. 2] | 0.012 µg/mL (≈ 0.0303 µM) | 0.012 µg/mL (≈ 0.0303 µM) | 0.1 µg/mL (≈ 0.252 µM) | 0.1 µg/mL (≈ 0.252 µM) | 0.006 µg/mL (≈ 0.0151 µM) | 0.006 µg/mL (≈ 0.0151 µM) | ≤ 0.003 µg/mL | 0.05 µg/mL (≈ 0.126 µM) | 0.025 µg/mL (≈ 0.0631 µM) | 0.006 µg/mL (≈ 0.0151 µM) | 0.05 µg/mL (≈ 0.126 µM) | ≤ 0.003 µg/mL | ≤ 0.003 µg/mL | 0.025 µg/mL (≈ 0.0631 µM) | 
CNC1([C@@H]2CCN(c3c(F)cc4c(=O)c(C(=O)O)cn([C@@H]5C[C@@H]5F)c4c3C#N)C2)CC1 [No. 3] |  |  |  |  |  |  |  |  |  |  |  |  | ≤ 0.003 µg/mL |  | MIC (S. epidermidis 56500; 56500): 0.012 µg/mL (≈ 0.028 µM); MIC (K. pneumoniae TYPE I): 0.025 µg/mL (≈ 0.0584 µM); MIC (P. aeruginosa 32104; 32104): 0.1 µg/mL (≈ 0.233 µM); MIC (S. maltophilia IID 1275): 0.1 µg/mL (≈ 0.233 µM); MIC (S. pneumoniae J24; J24): 0.006 µg/mL (≈ 0.014 µM); MIC (P. Vulgaris 08601): 0.012 µg/mL (≈ 0.028 µM); MIC (E. coli NIHJ): ≤ 0.003 µg/mL; MIC (P. aeruginosa 32121; 32121): 0.05 µg/mL (≈ 0.117 µM); MIC (S. marcescens 10100; 10100): 0.05 µg/mL (≈ 0.117 µM); MIC (S. pyogenes G-36): 0.006 µg/mL (≈ 0.014 µM); MIC (S. aureus 870307; 870307): 0.025 µg/mL (≈ 0.0584 µM); MIC (S. aureus FDA 209P): 0.006 µg/mL (≈ 0.014 µM); MIC (E. faevcalis ATCC 19433): 0.05 µg/mL (≈ 0.117 µM)
CCNC1([C@@H]2CCN(c3c(F)cc4c(=O)c(C(=O)O)cn([C@@H]5C[C@@H]5F)c4c3C#N)C2)CC1 [No. 4] |  |  |  |  |  |  |  |  |  |  |  |  | 0.006 µg/mL (≈ 0.0136 µM) |  | MIC (S. epidermidis 56500; 56500): 0.006 µg/mL (≈ 0.0136 µM); MIC (K. pneumoniae TYPE I): 0.025 µg/mL (≈ 0.0565 µM); MIC (P. aeruginosa 32104; 32104): 0.2 µg/mL (≈ 0.452 µM); MIC (S. maltophilia IID 1275): 0.2 µg/mL (≈ 0.452 µM); MIC (S. pneumoniae J24; J24): 0.006 µg/mL (≈ 0.0136 µM); MIC (P. Vulgaris 08601): 0.012 µg/mL (≈ 0.0271 µM); MIC (E. coli NIHJ): 0.006 µg/mL (≈ 0.0136 µM); MIC (P. aeruginosa 32121; 32121): 0.1 µg/mL (≈ 0.226 µM); MIC (S. marcescens 10100; 10100): 0.1 µg/mL (≈ 0.226 µM); MIC (S. pyogenes G-36): 0.025 µg/mL (≈ 0.0565 µM); MIC (S. aureus 870307; 870307): 0.025 µg/mL (≈ 0.0565 µM); MIC (S. aureus FDA 209P): 0.006 µg/mL (≈ 0.0136 µM); MIC (E. faevcalis ATCC 19433): 0.05 µg/mL (≈ 0.113 µM)
